Source: patent US20200223826A1, “Glucose-6-Phosphate Dehydrogenase (G6PD)-Modulating Agents And Methods Of Treating G6PD Deficiency” (The Board of Trustees of the Leland Stanford Junior …, priority 2017, published 2020)

What was measured:
zebrafish embryos = assay: Zebrafish embryo development; type: in vivo; conditions: treated at 24 hpf, scored at 32 or 48 hpf
Experimental: Adult zebrafish (AB strain; 3-18 months old) were raised and embryos were obtained through natural mating and staged according to standard protocols. Adult tbx16b104/+ were obtained. All animal procedures were performed according to NIH guidelines. Embryos were raised in E3 medium at 28.5° C.
Embryos were dechorinated with pronase at 24 hours post fertilization (hpf) and treated with 50 μg/ml of chloroquine and/or AG1 by directly adding the compounds to the well. For ROS measurements, embryos were incubated with compounds for 2 hours, and then the ROS detecting reagent (CM-H2DCFDA) was added at a final concentration of 500 ng/ml to the well for a total treatment time of 5 hours. One embryo was placed to each well of a black, opaque 96-well plate. The florescence was analyzed with excitation/emission at 485/525 nm. After ROS assays, embryos at about 32 hpf were pooled and lysed in buffer containing 50 mM Tris (pH 7.4), 150 mM NaCl, 1 mM EDTA, 0.1% NP-40, and protease inhibitor cocktail, which was followed by three cycles of freeze and thawing in liquid nitrogen. The lysate was centrifuged at 14,000 rpm at 4° C. for 15 minutes. Total protein concentration in the supernatants (total lysate) was determined by Bradford method. […] 50 μg of the lysate was used to measure NADPH levels using a NADPH quantification kit (Biovision), according to the manufacturer's instructions. […]

[1] = target: T1, Canton G6PD in SH-SY5Y cells (Homo sapiens, UniProt P11413, R459L); assay: G6PD activity of SH-SY5Y cells expressing Canton variant; type: cell-based
T1 construct: expressed in transfected cells; host or cells: SH-SY5Y neuroblastoma cells
Experimental: (§1) Enzyme activity was measured by monitoring NADPH production, which was coupled with diaphorase converting resazurin to fluorescent resorufin (excitation at 565 nm and emission at 590 nm); fluorescent signal was thus proportional to G6PD activity. Assays were performed at 25° C. and run for 5 minutes in buffer containing 50 mM Tris (pH 7.4), 0.5 mM EDTA, 3.3 mM MgCl2, 1 U/ml diaphorase, 0.1 mM resazurin. 10 ng of recombinant enzymes or 10 μg of cell lysates was used for the assay with 10 μM NADP^+ (Sigma) as cofactor and 100 μM G6P (Sigma) as substrate. Steady-state kinetic parameters were obtained by varying concentrations of NADP^+ (0-10 μM) with a constant concentration of G6P (100 μM) and similarly for G6P (0-100 μM) with a constant concentration of NADP^+ (10 μM) with 10 ng of recombinant enzymes. Data analysis was performed using GraphPad Prism software v.6 (GraphPad Software, La Jolla, Calif. USA). Kinetic parameters were obtained by fitting the data to the Michaelis-Menten equation.
Prior to the cellular-based assays using SH-SH5Y cells, duration of overexpression of WT G6PD and Canton variant was examined by transfecting the cells seeded in a 12-well plate. The genes encoding human WT G6PD and Canton variant were first PCR-amplified, which was then inserted into pcDNA 3.1/myc-His C (ThermoFisher Scientific) using HindIII and XhoI. […]

D181A G6PD = target: T2, D181A G6PD (Homo sapiens, UniProt P11413, D181A); assay: Canton-mimicking mutant: activity and proteolytic stability; type: biochemical
T2 construct: His (pET-28a) (N, cleaved yes); made in house; host or cells: E. coli C43 (DE3)
Experimental: as §1
(§2) 200 ng of recombinant enzymes were incubated with 1 μL of 10 ng/μL chymotrypsin for 1 hour at room temperature. 100 μM of the compound was added to some reaction conditions. The following protein level was examined by Western blot.

N185A G6PD = target: T3, N185A G6PD (Homo sapiens, UniProt P11413, N185A); assay: as above; type: biochemical
T3 construct: His (pET-28a) (N, cleaved yes); made in house; host or cells: E. coli C43 (DE3)
Experimental: as §1, §2

[2] = target: T4, G6PD in lymphocyte lysates carrying the Canton variant (Homo sapiens, UniProt P11413, R459L); assay: G6PD activity in lymphocyte lysates; type: cell-based; conditions: in the presence of AG1
T4 construct: host or cells: lymphocytes from a G6PD-deficient subject
Experimental: Lymphocytes derived from a normal subject (HG 00866) and a G6PD-deficient subject carrying Canton variant in G6PD (HG 02367) were purchased from Coriell Institute and cultured in RPMI 1640 supplemented with 15% fetal bovine serum (FBS), 100 U/ml penicillin, and 100 μg/ml streptomycin. An SH-SY5Y neuroblastoma cell line was cultured in Dulbecco's Modification of Eagle's Medium/Ham's F-12 50/50 Mix supplemented with 10% FBS, 100 U/ml penicillin, and 100 μg/ml streptomycin. A G6PD-deficient subject-derived fibroblast cell line carrying Mediterranean variant and normal fibroblast cell line as control were purchased from Coriell Institute (GM 01152) and ThermoFisher Scientific (C0135C), respectively, and cultured in minimum essential medium supplemented with 15% FBS, 100 U/ml penicillin, and 100 μg/ml streptomycin. All the cell lines were maintained at 37° C. in a humidified incubator with an atmosphere of 5% of CO2 and 95% air.
Enzyme activity was measured by monitoring NADPH production, which was coupled with diaphorase converting resazurin to fluorescent resorufin (excitation at 565 nm and emission at 590 nm); fluorescent signal was thus proportional to G6PD activity. Assays were performed at 25° C. and run for 5 minutes in buffer containing 50 mM Tris (pH 7.4), 0.5 mM EDTA, 3.3 mM MgCl2, 1 U/ml diaphorase, 0.1 mM resazurin. […]

g6pd crispant embryos = assay: g6pd crispant zebrafish embryos; type: in vivo; conditions: 1 μM AG1
Experimental: sgRNA against Exon 10 of g6pd was designed using CHOPCHOP and in vitro transcribed according to standard protocols. The gene-specific oligo sequence was: 5′-[…] CAAG-3′ (SEQ ID NO: //). sgRNA and Cas9 protein (NEB) were mixed and microinjected into one-cell-stage embryos. For each injected clutch, 10 individual embryos were isolated at 24 hpf for sequencing to confirm introduction of a CRISPR-mediated indel in exon 10.
Embryos were dechorinated with pronase at 24 hours post fertilization (hpf) and treated with 50 μg/ml of chloroquine and/or AG1 by directly adding the compounds to the well. For ROS measurements, embryos were incubated with compounds for 2 hours, and then the ROS detecting reagent (CM-H2DCFDA) was added at a final concentration of 500 ng/ml to the well for a total treatment time of 5 hours. One embryo was placed to each well of a black, opaque 96-well plate. The florescence was analyzed with excitation/emission at 485/525 nm. […] Total protein concentration in the supernatants (total lysate) was determined by Bradford method. […] 50 μg of the lysate was used to measure NADPH levels using a NADPH quantification kit (Biovision), according to the manufacturer's instructions.

T4 sequence (P11413 2-515 R459L limits assumed): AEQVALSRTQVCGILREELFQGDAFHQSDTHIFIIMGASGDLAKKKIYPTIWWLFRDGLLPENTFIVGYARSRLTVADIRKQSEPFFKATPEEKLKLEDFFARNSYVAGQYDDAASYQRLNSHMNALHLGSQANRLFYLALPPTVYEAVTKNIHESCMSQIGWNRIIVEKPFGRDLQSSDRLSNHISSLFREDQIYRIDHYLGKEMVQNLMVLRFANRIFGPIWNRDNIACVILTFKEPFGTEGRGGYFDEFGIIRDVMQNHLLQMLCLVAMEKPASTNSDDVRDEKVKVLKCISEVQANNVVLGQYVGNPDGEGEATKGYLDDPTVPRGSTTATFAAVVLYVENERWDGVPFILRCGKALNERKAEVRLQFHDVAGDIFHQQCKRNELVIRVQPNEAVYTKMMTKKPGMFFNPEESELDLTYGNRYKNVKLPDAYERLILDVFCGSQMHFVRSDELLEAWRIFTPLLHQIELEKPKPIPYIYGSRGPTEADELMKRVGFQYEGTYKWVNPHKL
T1 sequence (P11413 2-515 R459L): as the sequence (P11413 2-515 R459L limits assumed) above
T3 sequence (P11413 whole entry N185A): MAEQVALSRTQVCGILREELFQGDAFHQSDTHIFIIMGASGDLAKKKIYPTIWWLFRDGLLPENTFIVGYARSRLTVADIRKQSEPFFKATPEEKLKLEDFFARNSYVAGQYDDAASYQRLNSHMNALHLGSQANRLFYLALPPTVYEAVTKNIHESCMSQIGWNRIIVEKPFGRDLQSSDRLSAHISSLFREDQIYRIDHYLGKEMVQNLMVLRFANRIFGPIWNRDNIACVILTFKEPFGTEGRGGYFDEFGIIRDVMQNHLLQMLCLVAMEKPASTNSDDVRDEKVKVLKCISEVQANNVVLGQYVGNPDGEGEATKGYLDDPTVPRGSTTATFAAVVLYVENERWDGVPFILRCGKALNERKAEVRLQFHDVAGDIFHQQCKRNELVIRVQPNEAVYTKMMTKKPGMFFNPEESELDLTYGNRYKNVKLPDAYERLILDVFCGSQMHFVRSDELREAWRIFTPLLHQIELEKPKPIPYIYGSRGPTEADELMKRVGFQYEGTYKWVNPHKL
T2 sequence (P11413 whole entry D181A): as the sequence (P11413 whole entry N185A) above, with D181A, A185N counted along it

SCCNCCc1c[nH]c2ccccc12 [AG1, 2-[2-(1H-indol-3-yl)ethylamino]ethanethiol]
concentrations at which embryos developed normally (zebrafish embryos): < 10 µM
G6PD activity [1]: mild increase
activity and proteolytic stability (D181A G6PD): increased activity and proteolytic stability
activity and proteolytic stability (N185A G6PD): increased activity and proteolytic stability
enhancement of enzymatic activity in lymphocyte lysates [2]: 78%
ROS, G6PD activity, NADPH level, pericardial edema (g6pd crispant embryos): did not significantly affect
